These results are taken from patent publication US20130281313A1, “PROGNOSTIC AND/OR PREDICTIVE BIOMARKERS AND BIOLOGICAL APPLICATIONS THEREOF” (INSTITUT GUSTAVE ROUSSY, priority 2010, published 2013).

What all share (assay type): cell-based, human
Test [1] deals with A549 cells. Description: Genome-wide siRNA screen: residual proliferation (WST-1) of siRNA-transfected cells upon CDDP. As to conditions: 50 μM CDDP for 24 hours. As to the method:
High-throughput operations were carried out by means of a Microlab STAR automated workstation (Hamilton, Reno, USA) placed under a class II safety cabinet. In all screening rounds, each siRNA was tested in triplicates that were distributed to three different plates. Prior to cell seeding, transfection complexes were individually prepared in a V-bottomed 96-well deep well plate. In brief, each siRNA (as retrieved from the Human Whole Genome siRNA Set Version 1.0) was dissolved in a total volume of 122.5 μL serum-free phenol-red free DMEM/F12 medium (final concentration=10 nM, conditions for 7 wells). Similarly, an appropriate amount of HiPerFect® transfection reagent (Qiagen) was diluted in serum-free phenol-red free DMEM/F12 medium (0.25 μL per well). […] After additional 24 h, the 3 plates that were not subjected to cell death induction were assessed for both plasma membrane breakdown and residual cell proliferation, while the 3 plates that were treated with cell death-inducing stimuli were monitored for residual proliferation only (see next section). […]
In the second round of screen (4 siRNAs×1,000 transcripts=4,000 siRNAs), the effects of individual siRNAs were analyzed and scored as described above. […]
A general note: Tetrazolium assays rely on reduction of a dye to a coloured formazan, in cell work by metabolically active cells.

The next test concerns CDDP-GG DNA adducts. The experiment in a line: Immunofluorescence microscopy for the detection of CDDP-GG DNA adducts. As to conditions: A549 cells, 25 μM CDDP alone or combined with PN. As to the method:
Immunofluorescence staining and measurement of specific DNA platination products was performed essentially as previously described {Dzagnidze, 2007; Liedert, 2006}, with minor modifications. Briefly, cells were spotted onto ImmunoSelect adhesion slides (Squarix GmbH, Marl, Germany), fixed overnight in ice-cold methanol, and subjected to proteolytic digestion with 60 μg/mL pepsin (100 μL per spot, 10 min, 37° C., in a moist chamber) and 40 μg/mL proteinase K (100 μL per spot, 10 min, 37° C., in a moist chamber). Upon blockage of unspecific binding sites with 5% (w/v) non-fat powdered milk in PBS, slides were incubated with a rat primary antibody that specifically recognizes CDDP-GG DNA adducts (RC-18) (at 37° C. for 2 h or at 4° C. overnight). […] Images were acquired on an Axioplan fluorescence microscope (Carl Zeiss GmbH, Göttingen, Germany) coupled to a C4880 CCD camera (Hamamatsu Photonics, Herrsching, Germany). For the detection of CDDP-GG DNA adducts by immunofluorescence microscopy, fluorescence signals were measured by quantitative digital image analysis with the ACAS 6.0 Cytometry Analysis System (ACAS II, Asbach, Germany). The levels of adducts in each sample were calculated as arbitrary fluorescence units (AFUs), upon normalization of integrated antibody-derived fluorescence from 200 nuclei/sample to the corresponding DNA content. […]

For test [2], the system named is A549 cells. Description: Cell cycle distribution (PI staining, cytofluorometry). As to conditions: 10 μM CDDP alone or with PN and/or NAC. On the procedure: To measure apoptosis-related parameters, living cells were labeled for 30 min at +37° C. with 40 nM 3,3′dihexyloxalocarbocyanine iodide (DiOC6(3), from Molecular Probes-Invitrogen, Eugene, USA), which quantifies the mitochondrial transmembrane potential (Δψm), plus 1 μg/mL propidium iodide (PI), which only accumulates in cells with ruptured plasma membrane {Galluzzi, 2009; Galluzzi, 2008; Galluzzi, 2007}. To assess cell cycle distribution, cells were collected, fixed by gentle vortexing in ice-cold 80% (v/v) ethanol (Carlo Erba Reagents, Milano, Italy) and stained with 50 μg/mL PI in 0.1% (w/v) D-glucose in PBS supplemented with 1 μg/mL (w/v) RNAse A {Mondragon, 2009; Mouhamad, 2007}. All cytofluorometric determinations were carried out a FACSCalibur or a FACScan cytofluorometer (BD Biosciences, San Jose, USA) equipped with a 70 μm nozzle.
First line statistical analysis of cytofluorometric results was performed by using the CellQuest™ software (BD Biosciences), by gating on the events characterized by normal forward scatter and side scatter parameters. Apoptosis- and cell cycle-related data were further analyzed with Microsoft Excel (Microsoft Co., Redmond, USA) and statistical significance was assessed by means of two-tailed Student's t test (p<0.05).

In the case of `N.N.[Cl][Pt][Cl]` [CDDP, cis-diammineplatinum(II) dichloride], the cells killed in the test with A549 cells [1] is listed as ~45%.
With `Cc1ncc(CO)c(CO)c1O` [PN, pyridoxine], the CDDP-DNA adducts entry in the test with CDDP-GG DNA adducts is reported as “significantly increased CDDP-DNA adducts”. Also, in the test with A549 cells [2], the “cell cycle arrest induced by CDDP” value was “not affected by the presence of PN”.
